Reference: patent US20250205226A1, “USE OF N-(3-(4-(3-(DIISOBUTYLAMINO)PROPYL)PIPERAZIN-1-YL)PROPYL)-1H-BENZO[D]IMIDAZOL-2-AMINE SALTS AND SOLVATES THEREOF FOR THE TREATMENT OF SENSORY NEURON DISEASES” (ALZPROTECT, priority 2022, published 2025)
Read-outs that look alike come from different tables or passages of the source.

System: primary culture of rat sensory neurons and Schwann cells
Format: cell-based
Settings: for Effect on SN neurite network after cisplatin injury / Effect on SN survival as compared to the cisplatin condition: 3 nM to 100 nM, with cisplatin 10 μg/mL injury; for Survival of SNs (number of MAP-2 positive SNs), mean survival / Total neurite network (MAP-2), mean length: percentage of control, 24 h
Experimental: Primary sensory neurons (SN) and Schwann cells (SC) were cultured as previously described in Cancer Chem. Pharmacol. 2008 November;62 (6): 995-1007. Briefly, pregnant female rats of 15 days gestation (Rats Wistar; Janvier Labs France) were killed using a deep anesthesia with CO2 chamber and a cervical dislocation. Then, fetuses were collected and immediately placed in ice-cold L15 Leibovitz medium with a 2% penicillin (10,000 U/mL) and streptomycin (10 mg/mL) solution (PS) and 1% bovine serum albumin (BSA). DRG from spinal cord were treated for 20min at 37° C. with a trypsin-EDTA solution at a final concentration of 0.05% trypsin and 0.02% EDTA. The dissociation was stopped by addition of Dulbecco's modified Eagle's medium (DMEM) with 4.5 g/L of glucose, containing DNAse I grade II (final concentration 0.5 mg/mL) and 10% fetal calf serum (FCS). Cells were mechanically dissociated through the tip of a 10 mL pipette. Cells were then centrifuged at 515× g for 10 min at 4° C. DMEM F12 with a 1% solution of N2 supplement, 2 mmol/L of L-glutamine, 2% of PS solution, NGF (5 ng/ml) and NT3 (5 ng/ml). Cells were seeded at a density of 15,000 per well in 96-well plates pre-coated with poly-L-lysine and cultured at 37° C. in an air (95%)-CO2 (5%) incubator. […] Cells were washed twice in PBS. Cell membranes were permeabilized and non-specific sites were blocked with a solution of PBS containing 0.1% of saponin and 1% FCS for 15 min at room temperature. Then, cells were incubated for 2 h with a mouse monoclonal antibody anti-microtubule associated protein 2 (MAP-2) at dilution of 1/400 in PBS containing 1% fetal calf serum and 0.1% of saponin. This antibody binds specifically MAP-2 present in cell bodies and neurites of all SNs. […] Nuclei of neurons were labeled by a fluorescent marker (Hoechst solution). For each condition, 30 pictures (representative of 90% of the well area) per well were automatically taken using ImageXpress (Molecular Devices) with 20× magnification. All images were taken under the same conditions (exposition time, gain and laser intensity). Analysis of different endpoints was automatically performed using Custom Module Editor (Molecular Devices). The endpoints were: • Survival of SNs (number of MAP-2 positive SNs) • Total neurite network (MAP-2): total length of neurites of SNs (expressed in μm) All values are expressed as mean +/−SEM. Statistical analysis was performed by one-way ANOVA, followed by PLSD Fisher test.

CC(C)CN(CCCN1CCN(CCCNc2nc3ccccc3[nH]2)CC1)CC(C)C.O=S(=O)(O)O.O=S(=O)(O)O [N-(3-(4-(3-(diisobutylamino)propyl)piperazin-1-yl)propyl)-1H-benzo[d]imidazol-2-amine di-sulphate] was tested, and the “Effect on SN neurite network after cisplatin injury” value was “able to improve the neurite network after cisplatin injury”, the “Effect on SN survival as compared to the cisplatin condition” value was “positive and significant effect on survival” and the “Survival of SNs (number of MAP-2 positive SNs), mean survival” value (30 nM (maximal effect) with cisplatin 10 μg/mL injury, FIG. 7A) was 80%. For the same molecule, the “Total neurite network (MAP-2), mean length” value (30 nM (maximal effect) with cisplatin 10 μg/mL injury, FIG. 7B) was 83%.

For “N-(3-(4-(3-(diisobutylamino)propyl)piperazin-1-yl)propyl)-^1H-benzo[d]imidazol-2-amine sesqui-succinate salt [sesqui-succinate salt Form 1]”, the “Effect on SN neurite network after cisplatin injury” value was “able to protect the neurite network from cisplatin damage”, the “Effect on SN survival as compared to the cisplatin condition” value was “positive and significant effect on survival” and the “Survival of SNs (number of MAP-2 positive SNs), mean survival” value (10 nM (maximal effect) with cisplatin 10 μg/mL injury, FIG. 8A) was ~77%. For the same molecule, the “Total neurite network (MAP-2), mean length” value (10 nM (maximal effect) with cisplatin 10 μg/mL injury, FIG. 8B) was ~80%.
